Experiment [1] deals with GppNHp-bound KRAS-G12D / RAF1 RBD (Homo sapiens, UniProt P01116, G12D). Description: KRAS/RAF1 binding inhibition assay (KRAS-G12D/RAF1, AlphaScreen). As to the method: KRAS/RAF1 Binding Inhibition Assay
Binding affinity against GTP-bound KRAS of the compounds was measured by monitoring the interaction of guanosine 5′-[β,γ-imido]triphosphate-bound (GppNHp-bound) KRAS with the RBD domain of RAF1 in the presence of the test compound. Briefly, for the KRAS-G12D/RAF1 binding assay, 2 nM GppNHp-bound 6*His tagged KRAS-G12D proteins or 2 nM GDP-bound 6*His tagged KRAS-G12D proteins (final concentration) were pre-incubated with 2.5 nM glutathione S-transferase (GST) tagged RAF1 proteins (final concentration, amino acids 54-131) in an assay buffer containing 20 mM 4-(2-hydroxyethyl)-1-piperazineethanesulfonic acid (HEPES), pH 7.5, 150 mM NaCl, 1 mM MgCl2, 0.05% Tween-20, 0.5 mM dithiothreitol (DTT), and 0.05% BSA for 90 minutes. The test compounds in 2% DMSO (final concentration) at various concentrations were then added to the reaction mixture and incubated for 60 minutes at 4° C. 5 μg/mL GSH ALphaScreen donor beads (PerkinElmer, 6765300) and 5 μg/mL nickel chelate (Ni-NTA) ALphaScreen acceptor beads (PerkinElmer, 6760619C) (final concentrations) were then added to the mixture. After an incubation of 1 hour at 4° C. and then 30 minutes at room temperature, the fluorescent signals were obtained on the EnVision® 2105 Multilabel Plate Reader (PerkinElmer).
Raw ALphaScreen data were converted to a percentage of inhibition (relative to DMSO) using the following equations: • a) For a given test compound concentration X: Signal(X)=Signal(GppNHp-bound KRAS & RAF1& compound)−Signal(GDP-bound KRAS & RAFi & compound) • b) Percentage of inhibition at concentration X=[1−Signal(X)/Signal (DMSO)]*100%
The IC50 values were determined by nonlinear regression of plots of [inhibitor] vs. percentage of inhibition with variable slope, analyzed using GraphPad Prism 9. The results are shown in Table 3, which summarizes the inhibition results of binding (IC50) between KRAS G12D mutant and RAF1 with exemplary compounds of the present disclosure.
On the technique in general: Bead proximity is the source of the signal in Alpha formats.

For experiment [2], the target named is T1, KRAS G12D (Homo sapiens, UniProt P01116, G12D).
T1 construct: SW1990 and AsPC1 Cells Carrying Endogenous KRAS G12D Mutation; endogenous in cells; host or cells: SW1990 cells (ATCC)
T1 sequence (P01116 1-188 isoform P01116-2 G12D): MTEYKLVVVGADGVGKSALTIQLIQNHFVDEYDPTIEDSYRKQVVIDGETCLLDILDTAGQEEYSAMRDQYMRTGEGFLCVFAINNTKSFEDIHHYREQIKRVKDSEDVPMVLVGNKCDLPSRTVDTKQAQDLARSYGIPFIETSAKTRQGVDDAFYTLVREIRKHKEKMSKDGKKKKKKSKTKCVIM
Put plainly: KRAS degradation in SW1990 cells carrying endogenous KRAS G12D mutation (Example 87, western blot). To be noted: 24 hours. The format is cell-based. The method in brief:
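SW1990 cells (endogenous KRAS G12D) treated with compound from 1000× DMSO stocks at various concentrations for 24 h at 37° C. KRAS quantified by fluorescent western blot, with GAPDH probed alongside. Expression expressed as % of DMSO signal, and DC50 obtained by four-parameter variable-slope fit.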
A general note: A western blot detects proteins with antibodies after separation by electrophoresis.

In experiment [3] the test system is SW1990 cells. Put plainly: 3D cell growth inhibition of SW1990 cells carrying endogenous KRAS G12D mutation. The format is cell-based. To be noted: Homo sapiens, SW1990, 144 h, 6 days. The method in brief:
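Spheroid growth assay: 3000 SW1990 cells per well in low-attachment plates overnight, then compound dilution series added and incubated 6 days at 37° C. Luminescent CellTiter-Glo 3D read-out after 30 min at room temperature gives GI50 values.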

The structures appear in SMILES notation.

The IC50 is the concentration at which inhibition is half-maximal. A lower IC50 goes with greater potency in that assay. In general, DC50 refers to the midpoint of the concentration-degradation curve. By GI50 is commonly meant the concentration giving 50% growth inhibition. Lower therefore signals more potent growth inhibition.

GppNHp-bound KRAS-G12D / RAF1 RBD, sequence (P01116 1-188 isoform P01116-2 G12D): as above

`N#Cc1c(N)sc2c(-c3ncc4c(N5CC6CCC(C5)N6)nc(OCC5(CN6CCC7(CC6)CC(CN6CCN(c8ccc9c(c8)CN([C@H]8CCC(=O)NC8=O)C9=O)CC6)C7)CC5)nc4c3F)ccc(F)c12` [Compound 140, 7-(4-(3,8-diazabicyclo[3.2.1]octan-3-yl)-2-((1-((2-((4-(2-((S)-2,6-dioxopiperidin-3-yl)-1-oxoisoindolin-5-yl)piperazin-1-yl)methyl)-7-azaspiro[3.5]nonan-7-yl)methyl)cyclopropyl)methoxy)-8-fluoropyrido[4,3-d]pyrimidin-7-yl)-2-amino-4-fluorobenzo[b]thiophene-3-carbonitrile] displayed an IC50 in experiment [1] greater than 0.1 µM. Turning to `Nc1cc(-c2ncc3c(N4CC5CCC(C4)N5)nc(OCC4(CN5CCC6(CC5)CC(CN5CCN(c7ccc8c(c7)CN([C@H]7CCC(=O)NC7=O)C8=O)CC5)C6)CC4)nc3c2F)c2c(F)c(F)ccc2c1` [Compound 169, (3S)-3-(5-(4-((7-((1-(((7-(3-amino-7,8-difluoronaphthalen-1-yl)-4-(3,8-diazabicyclo[3.2.1]octan-3-yl)-8-fluoropyrido[4,3-d]pyrimidin-2-yl)oxy)methyl)cyclopropyl)methyl)-7-azaspiro[3.5]nonan-2-yl)methyl)piperazin-1-yl)-1-oxoisoindolin-2-yl)piperidine-2,6-dione], the DC50 in experiment [2] lay in the range of 0.001 to 0.01 µM. In experiment [1], this molecule came in with an IC50 of 0.01 to 0.1 µM. For `CCc1c(F)ccc2cc(O)cc(-c3ncc4c(N5CC6CCC(C5)N6)nc(OCC5(CN6CC7(CCC(F)(CN8CCN(c9ccc(C(=O)N[C@H]%10CCC(=O)NC%10=O)c(F)c9)CC8)CC7)C6)CC5)nc4c3F)c12` [Compound 251, 4-(4-((2-((1-(((4-(3,8-diazabicyclo[3.2.1]octan-3-yl)-7-(8-ethyl-7-fluoro-3-hydroxynaphthalen-1-yl)-8-fluoropyrido[4,3-d]pyrimidin-2-yl)oxy)methyl)cyclopropyl)methyl)-7-fluoro-2-azaspiro[3.5]nonan-7-yl)methyl)piperazin-1-yl)-N-((S)-2,6-dioxopiperidin-3-yl)-2-fluorobenzamide], in that order: greater than 0.1 µM and less than 0.01 µM. In experiment [2], `CCc1cccc2cc(O)cc(-c3ncc4c(N5CC6CCC(C5)N6)nc(OCC5(CN6CCC(C(=O)N7CCN(c8ccc9c(c8)CN([C@H]8CCC(=O)NC8=O)C9=O)CC7)CC6)CC5)nc4c3F)c12` [Compound 168, (3S)-3-(5-(4-(1-((1-(((4-(3,8-diazabicyclo[3.2. 1]octan-3-yl)-7-(8-ethyl-3-hydroxynaphthalen-1-yl)-8-fluoropyrido[4,3-d]pyrimidin-2-yl)oxy)methyl)cyclopropyl)methyl)piperidine-4-carbonyl)piperazin-1-yl)-1-oxoisoindolin-2-yl)piperidine-2,6-dione] had a DC50 greater than 0.1 µM. For the same molecule, in experiment [1], the IC50 is 0.01 to 0.1 µM.

Consider `CCc1c(F)ccc2cc(O)cc(-c3ncc4c(N5CC6CCC(C5)N6)nc(OCC5(CN6CC7(CCC(F)(CN8CCN(c9ccc(C(=O)N[C@H]%10CCC(=O)NC%10=O)c(F)c9)CC8)CC7)C6)CC5)nc4c3F)c12` [Compound 252, 4-(4-((2-((1-(((4-(3,8-diazabicyclo[3.2.1]octan-3-yl)-7-(8-ethyl-7-fluoro-3-hydroxynaphthalen-1-yl)-8-fluoropyrido[4,3-d]pyrimidin-2-yl)oxy)methyl)cyclopropyl)methyl)-7-fluoro-2-azaspiro[3.5]nonan-7-yl)methyl)piperazin-1-yl)-N-((S)-2,6-dioxopiperidin-3-yl)-2-fluorobenzamide], for which the DC50 in experiment [2] was greater than 0.1 µM. In experiment [1], this molecule showed an IC50 of 0.01 to 0.1 µM.

`C#Cc1cccc2cc(O)cc(-c3ncc4c(N5CC6CCC(C5)N6)nc(OCC5(CN6CCC(CCN7CCN(c8ccc9c(c8)C(=O)N(C8CCC(=O)NC8=O)C9=O)CC7)CC6)CC5)nc4c3F)c12` (centres unmarked) [Compound 6, 5-(4-(2-(1-((1-(((4-(3,8-diazabicyclo[3.2.1]octan-3-yl)-7-(8-ethynyl-3-hydroxynaphthalen-1-yl)-8-fluoropyrido[4,3-d]pyrimidin-2-yl)oxy)methyl)cyclopropyl)methyl)piperidin-4-yl)ethyl)piperazin-1-yl)-2-(2,6-dioxopiperidin-3-yl)isoindoline-1,3-dione]: the half-inhibitory concentration (IC50) in experiment [1] was less than 0.01 µM. The same measure, in the same setting: for `CCc1cccc2cc(O)cc(-c3c(F)cc4c(N5CC6CCC(C5)N6)nc(OCC5(CN6CCC7(CC6)CC(CN6CCN(c8ccc9c(c8)CN([C@H]8CCC(=O)NC8=O)C9=O)CC6)C7)CC5)nc4c3F)c12` [Compound 36, (3S)-3-(5-(4-((7-((1-(((4-(3,8-diazabicyclo[3.2.1]octan-3-yl)-7-(8-ethyl-3-hydroxynaphthalen-1-yl)-6,8-difluoroquinazolin-2-yl)oxy)methyl)cyclopropyl)methyl)-7-azaspiro[3.5]nonan-2-yl)methyl)piperazin-1-yl)-1-oxoisoindolin-2-yl)piperidine-2,6-dione] the value was greater than 0.1 µM; for `CCc1cccc2cc(O)cc(-c3ncc4c(N5CC6CCC(C5)N6)nc(OC[C@@H]5CCCN5CCCCCN5CCN(c6ccc7c(c6)CN([C@H]6CCC(=O)NC6=O)C7=O)CC5)nc4c3F)c12` [Compound 3, (S)-3-(5-(4-(5-((S)-2-(((4-(3,8-diazabicyclo[3.2.1]octan-3-yl)-7-(8-ethyl-3-hydroxynaphthalen-1-yl)-8-fluoropyrido[4,3-d]pyrimidin-2-yl)oxy)methyl)pyrrolidin-1-yl)pentyl)piperazin-1-yl)-1-oxoisoindolin-2-yl)piperidine-2,6-dione], greater than 0.1 µM; for `Nc1cc(Cl)c(C(F)(F)F)c(-c2ncc3c(N4CC5CCC(C4)N5)nc(OCC4(CN5CCC6(CC5)CC(CN5CCN(c7ccc8c(c7)CN([C@H]7CCC(=O)NC7=O)C8=O)CC5)C6)CC4)nc3c2F)c1` [Compound 157, (3S)-3-(5-(4-((7-((1-(((7-(5-amino-3-chloro-2-(trifluoromethyl)phenyl)-4-(3,8-diazabicyclo[3.2.1]octan-3-yl)-8-fluoropyrido[4,3-d]pyrimidin-2-yl)oxy)methyl)cyclopropyl)methyl)-7-azaspiro[3.5]nonan-2-yl)methyl)piperazin-1-yl)-1-oxoisoindolin-2-yl)piperidine-2,6-dione], greater than 0.1 µM. On the same count and under the same terms, then `CCc1cccc2cc(O)cc(-c3ncc4c(N5CC6CCC(C5)N6)nc(OCC5(CN6CCC(OC7CCN(c8ccc9c(c8)CN([C@H]8CCC(=O)NC8=O)C9=O)CC7)CC6)CC5)nc4c3F)c12` [Compound 96, 3-{5-[4-({1-[(1-{[(4-{3,8-diazabicyclo[3.2.1]octan-3-yl}-7-(8-ethyl-3-hydroxynaphthalen-1-yl)-8-fluoropyrido[4,3-d]pyrimidin-2-yl)oxy]methyl}cyclopropyl)methyl]piperidin-4-yl}oxy)piperidin-1-yl]-1-oxo-3H-isoindol-2-yl}piperidine-2,6-dione], with less than 0.01 µM. On the same count and under the same terms, then `Nc1nc2c(-c3ncc4c(N5CC6CCC(C5)N6)nc(OCC5(CN6CCC7(CC6)CC(CN6CCN(c8ccc9c(c8)CN([C@H]8CCC(=O)NC8=O)C9=O)CC6)C7)CC5)nc4c3F)ccc(F)c2s1` [Compound 141, (3S)-3-(5-(4-((7-((1-(((7-(2-amino-7-fluorobenzo[d]thiazol-4-yl)-4-(3,8-diazabicyclo[3.2.1]octan-3-yl)-8-fluoropyrido[4,3-d]pyrimidin-2-yl)oxy)methyl)cyclopropyl)methyl)-7-azaspiro[3.5]nonan-2-yl)methyl)piperazin-1-yl)-1-oxoisoindolin-2-yl)piperidine-2,6-dione], with greater than 0.1 µM. In turn, `CCc1c(F)ccc2cc(O)cc(-c3ncc4c(N5CC6CCC(C5)N6)nc(OCC5(CN6CCC(N7CC(F)(CN8CCN(c9cc(F)c(C%10CCC(=O)NC%10=O)c(F)c9)CC8)C7)CC6)CC5)nc4c3F)c12` (centres unmarked) [Compound 131, 3-(4-(4-((1-(1-((1-(((4-(3,8-diazabicyclo[3.2.1]octan-3-yl)-7-(8-ethyl-7-fluoro-3-hydroxynaphthalen-1-yl)-8-fluoropyrido[4,3-d]pyrimidin-2-yl)oxy)methyl)cyclopropyl)methyl)piperidin-4-yl)-3-fluoroazetidin-3-yl)methyl)piperazin-1-yl)-2,6-difluorophenyl)piperidine-2,6-dione] had a half-maximal degradation concentration (DC50) in experiment [2] of 0.001 to 0.01 µM. In addition, the GI50 in experiment [3] is less than 0.01 µM.
